Measured values from patent publication US5827871A, “Medicaments 1,2,3,4-tetrahydrocarbazoles and 5-HT1 agonist use thereof” (priority 1991, dated 1998).
Where a name gives a salt, the structure may show the parent alone.

What was measured:
5-HT1-like receptor [1] = molecular target: 5-HT1-like receptor (Canis lupus familiaris, UniProt P79250); assay: 5-HT1-like receptor screen, dog saphenous vein contraction; conditions: contraction of dog saphenous vein helicoids, 37° C., in presence of ketanserin, prazosin, atropine, mepyramine, cocaine and ascorbate; EC50 estimated from concentration-effect curve
Method: 5-HT1 -like Receptor Screen
Helicoids of dog saphenous vein were set up at 37° C. in modified Krebs solution at a resting force of 10 mN. The solution also contained 1 μmol/l each of ketanserin prazosin, atropine and mepyramine, 6 μmol/l cocaine and 200 μmol/l ascorbate. Nearly […] contractions were measured with force transducers on a polygraph. The tissues were exposed twice to 5-hydroxytryptamine (5-HT) 2 μmol/l followed by washes. A cumulative concentration-effect curve was determined, followed by a curve to 5-HT in the presence of the highest used concentration of test compound. Contractions caused by the test compound were compared with those caused by 5-HT. The intrinsic activity of the test compound was calculated as the ratio of the maximum test compound-induced effect over the effect caused by 2 μmol/l 5-HT. The EC50 of the test compound was estimated from the corresponding effect curve. When appropriate equilibrium dissociation constants Kp were estimated by the method of Marano & Kaumann (1976, J. Pharmacol. Exp. Ther. 198, 518-525).

5-HT1-like receptor [2] = molecular target: T1, 5-HT1-like receptor (Oryctolagus cuniculus, UniProt P49144); assay: 5-HT1-like receptor screen, rabbit isolated basilar artery contraction; conditions: isometric tension of endothelium-denuded rabbit basilar artery rings, in presence of ascorbate, indomethacin, cocaine, ketanserin and prazosin
T1 construct: from tissue; host or cells: rabbit basilar artery (endothelium-denuded ring segments)
Method: Experiments were performed in intracranial arteries from rabbit isolated basilar artery in a similar method to one described previously (Parsons and Whalley, 1989. Eur J Pharmacol 174, 189-196.).
In brief, rabbits were killed by overdose with anaesthetic (sodium pentobarbitone). The whole brain was quickly removed and immersed in ice cold modified Kreb's solution and the basilar artery removed with the aid of a dissecting microscope. The Krebs solution was of the following composition (mM) Na^+ (120); K^+ (5); Ca^2+ (2.25); Mg^2+ (0.5); Cl^- (98.5); SO4^2- (1); EDTA (0.04), equilibrated with 95% O2 /5% CO2. The endothelium was removed by a gentle rubbing of the lumen with a fine metal wire. Arteries were then cut into ring segments (ca 4-5 mm wide) and set up for recording of isometric tension in 50 ml tissue baths in modified Krebs solution with the additional supplement of (mM); […] (20); fumarate (10); pyruvate (5); L-glutamate (5) and glucose (10). The arteries were then placed under a resting force of 3-4 mN maintained at 37° C. and the solution bubbled with 95% O2 /5% CO2.
After tests for initial reactivity with 90 mM KCl depolarising solution and for lack of acetylcholine-induced relaxation of 5-HT ([…]) precontraction, cumulative concentration-effect curves ([…]) to 5-HT were constructed in the presence of ascorbate […], cocaine […], indomethacin […], ketanserin […] and prazosin […].
Following a 45-60 min wash period, cumulative concentration-effect curves to the test compounds or 5-HT (as a time match control) were constructed in the presence of ascorbate, indomethacin, cocaine, ketanserin and prazosin.

Sequence of 5-HT1-like receptor (Canis lupus familiaris, UniProt P79250) (P79250 whole entry): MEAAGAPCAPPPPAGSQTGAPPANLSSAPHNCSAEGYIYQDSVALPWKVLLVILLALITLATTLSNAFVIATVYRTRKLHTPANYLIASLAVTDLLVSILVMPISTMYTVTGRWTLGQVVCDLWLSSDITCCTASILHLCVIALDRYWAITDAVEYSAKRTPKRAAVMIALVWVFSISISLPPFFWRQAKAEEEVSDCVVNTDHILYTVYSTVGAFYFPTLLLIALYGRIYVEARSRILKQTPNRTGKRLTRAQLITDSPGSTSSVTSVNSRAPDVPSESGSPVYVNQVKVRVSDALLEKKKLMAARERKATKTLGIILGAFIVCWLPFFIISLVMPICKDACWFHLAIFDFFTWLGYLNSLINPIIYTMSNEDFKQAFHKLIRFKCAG
T1 sequence (P49144 whole entry): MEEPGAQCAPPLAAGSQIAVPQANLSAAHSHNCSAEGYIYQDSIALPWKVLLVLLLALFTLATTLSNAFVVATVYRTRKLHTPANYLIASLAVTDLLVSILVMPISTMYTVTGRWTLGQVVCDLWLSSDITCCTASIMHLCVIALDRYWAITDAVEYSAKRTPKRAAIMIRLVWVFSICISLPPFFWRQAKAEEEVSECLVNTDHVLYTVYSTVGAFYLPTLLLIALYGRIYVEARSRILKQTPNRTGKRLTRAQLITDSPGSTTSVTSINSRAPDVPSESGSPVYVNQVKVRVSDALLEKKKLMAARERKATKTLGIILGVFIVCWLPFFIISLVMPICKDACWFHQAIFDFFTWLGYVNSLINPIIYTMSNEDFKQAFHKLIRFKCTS

| SMILES | EC50 (5-HT1-like receptor [1]) | EC50 (5-HT1-like receptor [2]) |
| --- | --- | --- |
| CNS(=O)(=O)Cc1ccc2[nH]c3c(c2c1)CC(N)CC3 (stereo not shown) [Example 11, 3-Amino-6-(N-methylsulphonamidomethyl)-1,2,3,4-tetrahydrocarbazole oxalate] | 0.1 to 15 µM | – |
| NC1CCc2[nH]c3ccc(S(N)(=O)=O)cc3c2C1 (stereo not shown) [Example 15, 3-Amino-6-sulphonamido-1,2,3,4-tetrahydrocarbazole oxalate] | – | 0.04 to 15 µM |
| N#CCc1ccc2[nH]c3c(c2c1)CC(N)CC3 (stereo not shown) [Example 10, 3-Amino-6-cyanomethyl-1,2,3,4-tetrahydrocarbazole oxalate] | 0.1 to 15 µM | – |

The remaining lines, values ahead:

| EC50 (5-HT1-like receptor [1]) | EC50 (5-HT1-like receptor [2]) | SMILES |
| --- | --- | --- |
| 0.1 to 15 µM | – | CC(=O)Nc1ccc2[nH]c3c(c2c1)CC(N)CC3 (stereo not shown) [Example 21, 3-Amino-6-(acetamido)-1,2,3,4-tetrahydrocarbazole oxalate] |
| 0.1 to 15 µM | 0.04 to 15 µM | CNC1CCc2[nH]c3ccc(C(N)=O)cc3c2C1 (stereo not shown) [Example 24, 3-Methylamino-6-carboxamido-1,2,3,4-tetrahydrocarbazole hydrochloride] |
| – | 0.04 to 15 µM | NC(=O)c1ccc2[nH]c3c(c2c1)CC(NCc1ccccc1)CC3 (stereo not shown) [Example 29, 3-Benzylamino-6-carboxamido-1,2,3,4-tetrahydrocarbazole oxalate] |
